This is an account of results in patent US20080269251A1, “Substituted Pyrazinone Derivatives as Alpha2C-Adrenoreceptor Antagonists” (priority 2005, published 2008).

Series [1] has as its target T1, 5HT-transporter (Homo sapiens, UniProt P31645).
T1 construct: Human platelet membranes (Oceanix Biosciences Corporation, Hanover, Md., USA) were thawed; tissue Oceanix Biosciences Corporation, Hanover, Md., USA; host or cells: human platelet membranes
Nature of the series: Binding experiment for the 5HT-transporter ([3H]paroxetine, human platelet membranes). Conditions: [3H]paroxetine 0.5 nM, 60 min at 25° C., read-out: h-5HTT pIC50 (converted). The method, boiled down: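 Competition binding of [3H]paroxetine to human platelet membranes in Tris-HCl 50 mM with 120 mM NaCl and 5 mM KCl; bound radioligand separated by GF/B filtration and counted.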

Series [2] addresses T2, human adrenergic-α2A receptor (Homo sapiens, UniProt P08913).
T2 construct: expressed in transfected cells; host or cells: CHO cells, stably transfected; membrane preparation
T2 sequence (P08913 1-465): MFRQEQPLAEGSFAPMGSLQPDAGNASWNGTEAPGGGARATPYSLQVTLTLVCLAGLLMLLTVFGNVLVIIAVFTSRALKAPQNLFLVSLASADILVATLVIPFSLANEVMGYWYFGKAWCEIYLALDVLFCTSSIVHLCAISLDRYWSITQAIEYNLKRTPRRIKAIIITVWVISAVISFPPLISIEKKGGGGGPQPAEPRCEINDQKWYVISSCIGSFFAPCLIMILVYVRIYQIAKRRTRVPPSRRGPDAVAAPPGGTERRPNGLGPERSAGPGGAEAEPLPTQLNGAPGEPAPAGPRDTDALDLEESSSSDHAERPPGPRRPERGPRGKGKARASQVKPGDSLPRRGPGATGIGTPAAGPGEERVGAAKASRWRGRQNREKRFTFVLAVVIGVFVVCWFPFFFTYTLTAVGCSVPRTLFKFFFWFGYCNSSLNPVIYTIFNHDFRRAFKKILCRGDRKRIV
Nature of the series: Radioligand binding experiment for hα2A-adrenergic receptor ([3H]raulwolscine). Conditions: [3H]raulwolscine 1 nM, 60 minutes at 25° C.; read-out: h-α2A pIC50 (converted). The method, boiled down:
(§1)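 CHO membranes expressing human α2A or α2C receptors were incubated with 1 nM [^3H]raulwolscine for 60 min at 25° C in glycylglycine 25 mM, pH 8.0, then filtered. Nonspecific binding was defined with 1 μM oxymetazoline for α2A and 1 μM spiroxatrine for α2C. pIC50 came from sigmoidal competition curves.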

Series [3] concerns the target T3, human adrenergic-α2C receptor (Homo sapiens, UniProt P18825).
T3 construct: expressed in transfected cells; host or cells: CHO cells, stably transfected; membrane preparation
T3 sequence (P18825 1-462): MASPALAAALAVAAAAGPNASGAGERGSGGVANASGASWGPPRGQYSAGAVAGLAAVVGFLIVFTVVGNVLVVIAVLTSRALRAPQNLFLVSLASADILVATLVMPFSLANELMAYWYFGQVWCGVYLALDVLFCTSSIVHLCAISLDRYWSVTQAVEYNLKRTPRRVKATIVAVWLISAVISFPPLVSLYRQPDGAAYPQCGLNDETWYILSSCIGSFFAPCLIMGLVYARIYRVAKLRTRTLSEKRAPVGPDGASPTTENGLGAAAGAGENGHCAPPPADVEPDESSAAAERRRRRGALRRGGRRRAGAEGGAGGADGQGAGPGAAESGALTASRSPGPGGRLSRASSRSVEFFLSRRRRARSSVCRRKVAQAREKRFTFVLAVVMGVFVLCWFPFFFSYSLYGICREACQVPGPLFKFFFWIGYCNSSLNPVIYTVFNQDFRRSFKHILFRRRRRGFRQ
The series is described as follows: Radioligand binding experiment for hα2C-adrenoceptor ([3H]raulwolscine). Conditions: [3H]raulwolscine 1 nM, 60 minutes at 25° C.; read-out: h-α2C pIC50 (converted). In short, it runs like this: as §1

T1 sequence (P31645 whole entry): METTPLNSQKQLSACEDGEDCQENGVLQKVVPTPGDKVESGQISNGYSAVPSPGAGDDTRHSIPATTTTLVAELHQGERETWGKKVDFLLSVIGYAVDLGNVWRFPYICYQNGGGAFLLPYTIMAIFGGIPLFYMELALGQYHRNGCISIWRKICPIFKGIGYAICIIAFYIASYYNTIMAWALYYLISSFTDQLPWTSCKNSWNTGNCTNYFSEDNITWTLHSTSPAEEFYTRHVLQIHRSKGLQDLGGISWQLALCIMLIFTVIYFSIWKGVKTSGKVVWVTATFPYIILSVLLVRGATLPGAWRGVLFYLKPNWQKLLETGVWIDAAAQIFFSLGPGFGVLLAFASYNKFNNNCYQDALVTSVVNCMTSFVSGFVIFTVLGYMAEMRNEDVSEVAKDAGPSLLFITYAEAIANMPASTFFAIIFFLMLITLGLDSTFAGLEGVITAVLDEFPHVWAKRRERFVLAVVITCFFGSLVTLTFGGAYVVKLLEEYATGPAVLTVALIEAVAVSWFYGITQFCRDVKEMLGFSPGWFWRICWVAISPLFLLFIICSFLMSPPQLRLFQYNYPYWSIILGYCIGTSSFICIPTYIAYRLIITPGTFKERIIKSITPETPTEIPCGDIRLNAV

A word on the melting point: it is the temperature of the solid-liquid transition. Turning to `CCCCNc1cccc(-n2ccnc(NC3CCN(Cc4ccc5ccccc5c4)CC3)c2=O)c1` [1-05], the melting point was found to be 117.5 °C. For the same compound, in series [1], the IC50 is 20 nM. For the same compound, in series [2], the IC50 is 39.8 nM. Moreover, the IC50 in series [3] is 15.8 nM.
The compound `CCCNC(=O)c1ccc(-n2ccnc(NC3CCN(Cc4ccc5ccccc5c4)CC3)c2=O)cc1` [1-09] gave a melting point of 210.1 °C. Also, the IC50 in series [1] was 20 nM. Besides, the IC50 in series [2] is 200 nM. For the same compound, the IC50 in series [3] was 39.8 nM.
In turn, `CCCC(=O)NCc1ccc(-n2ccnc(NC3CCN(Cc4ccc5ccccc5c4)CC3)c2=O)cc1F` [1-26] returned a melting point of 95 °C. For the same compound, in series [1], the IC50 is 7.94 nM. For the same compound, in series [2], the IC50 was 398 nM. Moreover, the IC50 in series [3] is 7.94 nM.
Compound `O=c1c(NC2CCN(Cc3ccc4ccccc4c3)CC2)nccn1-c1ccc(NCC2CCCO2)cc1` (stereo not drawn) [1-78] yielded a melting point above 300 °C. The IC50 in series [1] was 15.8 nM. In series [2], the IC50 was 200 nM. Also, in series [3], the IC50 is 10 nM.
On the same counts, the results for `O=c1c(NC2CCN(Cc3ccc4ccccc4c3)CC2)nccn1-c1ccc(CNCC2CCCO2)cc1` (stereo not drawn) [1-79a] are above 300 °C, 3.16 nM, 158 nM and 5.01 nM.
On the same counts, the results for `O=C(NCCN1CCCCC1)c1ccc(-n2ccnc(NC3CCN(Cc4ccc5ccccc5c4)CC3)c2=O)cc1` [1-88] are 172.3 °C, 3.16 nM, 79.4 nM and 25.1 nM.
As to `O=C(NCCN1CCOCC1)c1ccc(-n2ccnc(NC3CCN(Cc4ccc5ccccc5c4)CC3)c2=O)cc1` [1-91], the melting point came to 271 °C. In addition, the IC50 in series [1] was 15.8 nM. Further, the IC50 in series [2] was 316 nM. In addition, the IC50 in series [3] was 63.1 nM.
For `O=c1c(NC2CCN(Cc3ccc4ccccc4c3)CC2)nccn1-c1ccc(NCCN2CCOCC2)cc1` [1-92], in that order: 195.3 °C, 12.6 nM, 316 nM and 15.8 nM.
Compound `O=C(CCN1CCOCC1)Nc1ccc(-n2ccnc(NC3CCN(Cc4ccc5ccccc5c4)CC3)c2=O)cc1` [1-97] displayed a melting point of 183.4 °C. In series [1], the IC50 was 15.8 nM. Besides, the IC50 in series [2] is 316 nM. In series [3], the IC50 was 12.6 nM.
On the same counts, the results for `C=CCSc1ncccc1C(=O)NCc1ccc(-n2ccnc(NC3CCN(Cc4ccc5ccccc5c4)CC3)c2=O)cc1` [1-102] are 117.7 °C, 15.8 nM, 316 nM and 63.1 nM.
On the same counts, the results for `O=C(c1ccc(-n2ccnc(NC3CCN(Cc4ccc5ccccc5c4)CC3)c2=O)cc1)N1CCOCC1` [2-08] are 271.4 °C, 63.1 nM, 100 nM and 25.1 nM.
`O=c1c(NC2CCN(Cc3ccc4ccccc4c3)CC2)nccn1CCN1CCCCC1` [2-10] yielded a melting point of 161.2 °C. Moreover, the IC50 in series [1] is 158 nM. Further, the IC50 in series [2] was 200 nM. The IC50 in series [3] is 25.1 nM.
`O=C1c2ccccc2C(=O)N1C/C=C/Cn1ccnc(NC2CCN(Cc3ccc4ccccc4c3)CC2)c1=O` [2-18] had a melting point of 172.8 °C. In addition, the IC50 in series [1] is 3.98 nM. For the same compound, the IC50 in series [2] is 79.4 nM. Moreover, the IC50 in series [3] was 3.98 nM.
On to `O=C1c2ccccc2C(=O)N1CCCn1ccnc(NC2CCN(Cc3ccc4ccccc4c3)CC2)c1=O` [2-19], for which the melting point came out at 76.5 °C. In addition, the IC50 in series [1] is 12.6 nM. The IC50 in series [2] was 126 nM. In addition, in series [3], the IC50 was 3.98 nM.
With `O=C1c2ccccc2C(=O)N1CC#CCn1ccnc(NC2CCN(Cc3ccc4ccccc4c3)CC2)c1=O` [2-20], the melting point is 96.3 °C. For the same compound, the IC50 in series [1] is 15.8 nM. In series [2], the IC50 is 398 nM. Further, the IC50 in series [3] is 7.94 nM.
For `COC(=O)c1ccc(-n2ccnc(NC3CCN(Cc4ccc5ccccc5c4)CC3)c2=O)cc1` [3-05], in that order: 196.5 °C, 39.8 nM, 100 nM and 79.4 nM.
For `O=c1c(NC2CCN(Cc3ccc4ccccc4c3)CC2)nccn1-c1ccc(COCCN2CCOCC2)cc1` [3-13], in that order: 153.9 °C, 5.01 nM, 200 nM and 3.98 nM.
For `O=c1c(NC2CCN(Cc3ccc4ccccc4c3)CC2)nccn1-c1ccsc1` [6-05], in that order: 152.8 °C, 39.8 nM, 126 nM and 39.8 nM.
On to `O=c1c(NC2CCN(Cc3ccc4ccccc4c3)CC2)nccn1-c1cccnc1` [6-06], for which the melting point was above 300 °C. For the same compound, the IC50 in series [1] is 100 nM. In addition, the IC50 in series [2] was 398 nM. Moreover, the IC50 in series [3] was 50.1 nM.
With `O=c1c(NC2CCN(Cc3ccc4ccccc4c3)CC2)nccn1-c1ccncc1` [6-07], the melting point was determined as 125.1 °C. Further, the IC50 in series [1] was 100 nM. Further, the IC50 in series [2] was 200 nM. Moreover, the IC50 in series [3] is 63.1 nM.
Regarding `O=c1c(NC2CCN(Cc3ccc4ccccc4c3)CC2)nccn1-c1ccc2c(c1)CN(Cc1ncc[nH]1)CC2` [6-14], the melting point is 134.7 °C. Besides, in series [1], the IC50 is 15.8 nM. Further, in series [2], the IC50 is 79.4 nM. Besides, in series [3], the IC50 was 6.31 nM.
Regarding `O=C1c2ccccc2C(=O)N1CC#CCn1ccnc(NC2CCN(Cc3ccc4ccccc4n3)CC2)c1=O` [9-18], the IC50 in series [1] is 1000 nM; in series [2], 2000 nM; in series [3] it was 63.1 nM.
Turning to `O=C(CCN(c1nccn(CCC(=O)c2ccccc2)c1=O)C1CCN(Cc2cnc3ccccc3c2)CC1)c1ccccc1` [9-20], the IC50 in series [1] was 398 nM; in series [2], 3160 nM; in series [3], 398 nM.
Regarding `CCOC(=O)CCCCn1ccnc(NC2CCN(Cc3cnc4ccccc4c3)CC2)c1=O` [9-21], the IC50 was 2000 nM in series [1], 1260 nM in series [2] and 200 nM in series [3].
For `NCc1ccc(Cn2ccnc(N3CCN(Cc4cccc5ccccc45)CC3)c2=O)cc1` [9-23], in that order: 1260 nM, 398 nM and 1000 nM.
On the same counts, the results for `CN(C)C(=O)Cn1ccnc(N2CCN(Cc3cccc4ccccc34)CC2)c1=O` [9-24] are above 10000 nM, 5010 nM and 398 nM.
Regarding `CC(C)(C)OC(=O)NCc1ccc(Cn2ccnc(N3CCN(Cc4cccc5ccccc45)CC3)c2=O)cc1` [9-25], the IC50 is 1260 nM in series [1], 631 nM in series [2] and 398 nM in series [3].
For `O=c1c(N2CCN(Cc3cccc4ccccc34)CC2)nccn1Cc1ccccc1` [9-26], in that order: 2510 nM, 501 nM and 1000 nM.
For `O=C1c2ccccc2C(=O)N1CCCn1ccnc(NC2CCN(Cc3cnc4ccccc4c3)CC2)c1=O` [9-27], the IC50 is 631 nM in series [1], above 10000 nM in series [2] and 794 nM in series [3].
On the same counts, the results for `O=C(CCN(c1nccn(CCC(=O)c2ccccc2)c1=O)C1CCN(Cc2ccnc3ccccc23)CC1)c1ccccc1` [9-28] are 200 nM, above 10000 nM and 631 nM.
With `O=c1c(N2CCN(Cc3ccc4ccccc4n3)CC2)nccn1Cc1ccccc1` [9-29], the IC50 in series [1] was above 10000 nM; in series [2] it was 631 nM; in series [3], 501 nM.
